Reference: ChEMBL document CHEMBL2163339, “Discovery of potent inhibitors of human and mouse fatty acid amide hydrolases” (J Med Chem, 2012)
Active and inactive are the calls of the source.

Test system: Rattus norvegicus
Experiment: Analgesic activity in rat assessed as increase in paw withdrawal threshold at 50 mg/kg, po
Type: functional, organism-based
Parameters: dose 50 mg/kg

Structure (SMILES): NC(=O)c1cccc(-c2cccc(OC(=O)NC3CCCCC3)c2)c1
- Activity: inactive
